# Measured values: publication PMC8956739, “A synthetic lipopeptide targeting top-priority multidrug-resistant Gram-negative pathogens” (Nature Communications, 2022)
# “And” between values parts separate entries of the source, which are not always exact repeats. Identical values can stand only once. Like-named read-outs stand apart in the source and are kept apart here. Residues, ends and D or L forms follow the SMILES beside them.
# Legend:
# [1] = tested on: P. aeruginosa ATCC 27853; assay: Neutropenic mouse bloodstream infection model; type: in vivo; conditions: single IV dose 4 mg/kg; for Log10 CFU/mL blood at 4 h, Mean / Δlog10 CFU/mL blood (mean) / Log10 CFU/mL blood at 4 h, single mouse: 4 h; for Δlog10 CFU/mL blood (mean): treated minus control, mean of replicates; for Δlog10 CFU/mL blood (mean) / Log10 CFU/mL blood at 4 h, single mouse / Delta Log10 CFU/mL blood at 4 h, single mouse: 4 mg/kg; for Delta Log10 CFU/mL blood at 4 h, single mouse: treated mouse minus mean of vehicle mice
# Procedure, shortened: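 Female Swiss mice made neutropenic with cyclophosphamide (150 mg/kg day −4, 100 mg/kg day −1), infected IV with 50 µL of 4 × 10^8 CFU/mL. Lipopeptide 4 mg/kg (free base) IV at 2 h post-inoculation, n = 3. Efficacy = Δlog10 CFU/mL blood versus saline at 4 h post-dose.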
# [2] = tested on: Swiss mice; assay: Acute toxicity in mice (maximum tolerated dose, IV bolus); type: in vivo, mouse; conditions: replicates 1-4
# Procedure, shortened: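 Female Swiss mice (7 weeks, 22–28 g) given single IV tail-vein bolus of lipopeptide in 0.9% saline, dosed as mg/kg free base. Clinical toxicity signs monitored over 0–24 h, most frequently in first 2 h.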
# [3] = tested on: Swiss mice, kidney; assay: Nephrotoxicity in mice (kidney histopathology); type: in vivo, mouse; conditions: for Kidney histopathology (SQS Score): 72 mg/kg/d subcutaneously in six divided doses every 2 h, n = 3
# Procedure, shortened: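 Female Swiss mice (7-week-old, 22–28 g) received lipopeptides in saline either s.c. at 12 mg/kg ×6 every 2 h (total 72 mg/kg, n = 3) or i.p. at 20 or 25 mg/kg ×6 every 2 h (total 120 mg/kg, n = 6; 150 mg/kg, n = 3). Right kidney collected 20 h after last dose, fixed in 10% buffered formalin (pH 7.4), histology scored blinded.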
# [4] = tested on: P. aeruginosa FADDI-PA025; type: cell-based, Pseudomonas aeruginosa
# Procedure, shortened: (§1)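 Each strain is tested in cation-adjusted Mueller–Hinton broth using the micro-dilution technique, and growth inhibition gives the MIC.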
# [5] = tested on: MDR clinical isolates of P. aeruginosa (n = 213, 55 carbapenem-resistant); type: cell-based, Pseudomonas aeruginosa
# Procedure, shortened: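 Broth microdilution, CaMHB; MIC read as the antibacterial endpoint against ATCC reference strains and clinical isolates.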
# [6] = tested on: P. aeruginosa FADDI-PA038; type: cell-based, Pseudomonas aeruginosa; conditions: carbapenem-resistant isolate
# Procedure, shortened: as §1
# [7] = tested on: P. aeruginosa ATCC 27853; type: cell-based, Pseudomonas aeruginosa
# Procedure, shortened: as §1
# [8] = tested on: KCNJ16 knockout HK-2 cells; assay: Cell viability after 24 h treatment; type: cell-based, human
# Description: (§2) Fig. 6 Transcriptomic changes in human kidney proximal tubular HK-2 cells following treatments with polymyxin B (PMB), colistin (COL), F287, F319, and F365. a Numbers of differentially expressed genes. Distinctive intersections are color-coded. b Cell viability difference (two-tailed Student’s t-test, n = 4 biologically independent cells, Benjamini–Hochberg adjusted P-values) between wild-type HK-2 and KCNJ16 knockout (KO) cells following 24 h treatment with lipopeptides. n.s., not significant; ^*adjusted P < 0.05, ^**adjusted P < 0.01, ^***adjusted P < 0.001. Data are shown as mean ± s.d. and individual data points. c Extracted transcriptional regulatory network from Signor database with 1-step neighbor constraints (enlarged for detail). Source data are provided as a Source Data file.
# [9] = Cell viability after 24 h treatment; type: cell-based, human; conditions: human, KCNJ16 knockout HK-2 cells (kidney proximal tubular), Cell viability, KCNJ16 KO, KCNJ16 knockout HK-2 cells, 24 h, Fig. 6b
# Description: as §2
# [10] = mouse, in vivo, ip, 60 mg/kg/day
# [11] = isolates with MIC 0.05 μg/mL (so in the source)
# [12] = isolates with MIC 0.125 μg/mL (so in the source)
# [13] = isolates with MIC 0.25 μg/mL (so in the source)
# [14] = isolates with MIC 0.5 μg/mL (so in the source)
# [15] = isolates with MIC 1 μg/mL (so in the source)
# [16] = isolates with MIC 2 μg/mL (so in the source)
# [17] = isolates with MIC 4 μg/mL (so in the source)
# [18] = isolates with MIC 8 μg/mL (so in the source)
# [19] = isolates with MIC 16 μg/mL (so in the source)
# [20] = isolates with MIC 32 μg/mL (so in the source)
# [21] = isolates with MIC 64 μg/mL (so in the source)
# [22] = isolates with MIC >64 μg/mL (so in the source)
# [23] = 150 mg/kg/d IP in 6 divided doses every 2 h
# [24] = MDR clinical isolates of (n = 213, 55 carbapenem-resistant)
Compound,"Log10 CFU/mL blood at 4 h, Mean [1]",Δlog10 CFU/mL blood (mean) [1],"Log10 CFU/mL blood at 4 h, single mouse [1]","Delta Log10 CFU/mL blood at 4 h, single mouse [1]","MTD, single replicate [2]",Kidney histopathology (SQS Score) [3],"Kidney histopathology, mice with the SQS score ([3]; mouse, in vivo)","Number of isolates [5, 11]","Number of isolates [5, 12]","Number of isolates [5, 13]","Number of isolates [5, 14]","Number of isolates [5, 15]","Number of isolates [5, 16]","Number of isolates [5, 17]","Number of isolates [5, 18]","Number of isolates [5, 19]","Number of isolates [5, 20]","Number of isolates [5, 21]","Number of isolates [5, 22]",MIC P. aeruginosa FADDI-PA038 [6],other results
Polymyxin B [reference compound],4.76 Log10 CFU/mL blood,-2.69 log10 CFU/mL blood,4.60 Log10 CFU/mL blood and 4.85 Log10 CFU/mL blood and 4.82 Log10 CFU/mL blood,-2.84 Log10 CFU/mL blood and -2.60 Log10 CFU/mL blood and -2.63 Log10 CFU/mL blood,7 mg/kg and 5 mg/kg and 4.6 mg/kg,"+5 (SQS + 5 = severe damage (overall score, >60))",3/3,0,0,1,9,99,95,7,0,2,0,0,0,0.5 µg/mL,"Δlog10 CFU/mL blood (mean) ([1]; listed as PMB): −2.69 log10 CFU/mL blood; Kidney histological damage [3, 10]: Moderate to severe; Kidney histological damage, mice with the given grade [3, 10]: 6/6; MIC P. aeruginosa FADDI-PA025 ([4]; MDR clinical isolate): 2 µg/mL; MIC50 ([5]; P. aeruginosa n = 213): 1 µg/mL; MIC90 ([5]; P. aeruginosa n = 213): 2 µg/mL; MIC P. aeruginosa FADDI-PA038 ([6]; listed as PMB): 1 µg/mL; MIC P. aeruginosa ATCC 27853 [7]: 0.5 µg/mL; loss of antibacterial activity due to binding to lung surfactant ([7]; 10% Survanta): 87.5%; increase of MIC in the presence of lung surfactant ([7]; 10% Survanta vs none): 8 fold; MIC, 10% Survanta ([7]; P. aeruginosa ATCC 27853, 10% Survanta): 8 µg/mL; MIC, No Survanta ([7]; P. aeruginosa ATCC 27853, no surfactant): 1 µg/mL; Cell viability, KCNJ16 KO, Rep1 ([8]; KCNJ16 knockout HK-2 cells, 24 h, replicate 1, Fig. 6b): 61.7446; Cell viability, KCNJ16 KO, Rep2 ([8]; KCNJ16 knockout HK-2 cells, 24 h, replicate 2, Fig. 6b): 73.0677; Cell viability, KCNJ16 KO, Rep3 ([8]; KCNJ16 knockout HK-2 cells, 24 h, replicate 3, Fig. 6b): 75.1154; Cell viability, KCNJ16 KO, Rep4 ([8]; KCNJ16 knockout HK-2 cells, 24 h, replicate 4, Fig. 6b): 76.9625"
"CC[C@@H]1NC(=O)[C@@H](CC(C)C)NC(=O)[C@H](CCN)NC(=O)[C@@H](NC(=O)[C@H](CN)NC(=O)[C@@H](NC(=O)[C@H](CCN)NC(=O)c2ccc(Cl)cc2Cl)[C@@H](C)O)CCNC(=O)[C@H]([C@@H](C)O)NC(=O)[C@H](CCN)NC(=O)[C@H](CCN)NC1=O [Lipopeptide F365] (HELM PEPTIDE1{[O=C(c1ccc(Cl)cc1Cl)[*:2]].[Dab].T.[NC[C@H](N[*:1])C(=O)[*:2]].[Dab].[Dab].[dL].[Abu].[Dab].[Dab].T}$PEPTIDE1,PEPTIDE1,5:R3-11:R2$$$V2.0)",4.36 Log10 CFU/mL blood,−3.44 log10 CFU/mL blood,5.03 Log10 CFU/mL blood and 4.95 Log10 CFU/mL blood and 3.10 Log10 CFU/mL blood,-2.77 Log10 CFU/mL blood and -2.85 Log10 CFU/mL blood and -4.70 Log10 CFU/mL blood,10.1 mg/kg,"0 (SQS 0 = no significant change (overall score, <1))",3/3,1,6,28,159,13,1,2,0,1,0,0,2,0.5 µg/mL,"SQS score [3, 23]: 0 (SQS 0 = no significant change (overall score, <1)); mice with the SQS score [3, 23]: 3/3; Kidney histological damage, mice with the given grade ([3]; mouse, in vivo, ip, 120 mg/kg/day): 6/6; Kidney damage ([3]; mouse, in vivo, ip, 150 mg/kg): no significant damage to the kidneys; MIC P. aeruginosa FADDI-PA025 ([4]; FADDI-PA025): 0.5 µg/mL; MIC50 [5, 24]: 0.5 µg/mL; MIC90 [5, 24]: 1 µg/mL; potency relative to polymyxin B ([5]; MIC50/MIC90, P. aeruginosa panel): 2 fold; impact of lung surfactant on MIC ([7]; 10% Survanta vs none): not impacted; MIC P. aeruginosa ATCC 27853 ([7]; ATCC 27853): 0.5 µg/mL; MIC, No Survanta ([7]; ATCC 27853): 0.5 µg/mL; viability at 24 h ([9]; Rep1, replicate 1, read-out: Cell viability, KCNJ16 KO, Rep1): 76%; viability at 24 h ([9]; Rep2, replicate 2, read-out: Cell viability, KCNJ16 KO, Rep2): 94.1%; viability at 24 h ([9]; Rep3, replicate 3, read-out: Cell viability, KCNJ16 KO, Rep3): 100%; viability at 24 h ([9]; Rep4, replicate 4, read-out: Cell viability, KCNJ16 KO, Rep4): 73.7%; effect on cell viability ([8]; 24 h treatment): no effect on cell viability"
